Data taken from patent US20050037450A1, “Novel targets for lithium therapy” (Duke University, priority 2002, published 2005).
Read-outs that look alike come from different tables or passages of the source.

System: Wild type yeast
Experiment: Lithium inhibition of yeast growth (OD600), wild type
Type: cell-based, S. cerevisiae
Conditions: Saccharomyces cerevisiae
Description: FIG. 7 is a graph showing met3Δ and met14Δ strains are lithium resistant. Wild type, met3Δ, and met14Δ yeast were resuspended at 5×10^4/ml in CM/ura^− containing 2% dextrose and 1.25 μg/ml methionine. Growth at various concentrations of LiCl was measured after a 24 hr incubation at 30° C. The growth is plotted relative to growth in media lacking lithium.
FIG. 10 is a graph showing methionine supplementation induces lithium resistance. Wild type yeast were inoculated at 5×10^4 cells per ml into synthetic media with or without methionine containing the noted concentration of LiCl. Growth was assayed by spectrophotometry following 48 hrs of growth at 30° C.
Wild type yeast were grown in CM/ura^− containing 2% galactose to mid-log phase. The cultures were washed and resuspended at 5×10^5 cells/ml in CM/ura^−/met^− containing the noted lithium and chlorate concentrations. Following growth for 24 hr at 30° C., the cultures were resuspended, and growth was measured by determining the absorbance at λ=600 nm.
Since methionine effects transcriptional down regulation of the MET3 and MET14 gene products in wild type yeast, the relative lithium sensitivities of the met3Δ and met14Δ strains were assayed in growth media containing reduced methionine (1.25 μg/ml). The use of limited methionine allowed for the comparison of the relative sensitivity to lithium of yeast expressing (wild type) or lacking (met3Δ and met14Δ) PAPS synthetase activities.
The yeast system was used to determine if chlorate could be used to effect a relevant decrease in the accumulation of PAP in the presence of lithium. […] The decrease in PAP accumulation was physiologically relevant since chlorate produced a protective effect in the presence of lithium. […] When 25 mM NaClO3 is included in the culture medium, the growth inhibition is abated, with the IC50 increasing to approximately 80 mM LiCl (FIG. 11)

## [Li] [lithium]
CM/ura− 2% dextrose, 1.25 μg/ml methionine, 24 hr at 30° C., growth relative to media lacking lithium, read-out: IC50 of lithium for growth inhibition
  IC50: ~40 mM
CM/ura−/met−, 24 hr at 30° C., 25 mM NaClO3 in culture medium, read-out: IC50 of LiCl for growth inhibition with chlorate
  IC50: ~80 mM
Synthetic media without methionine, 48 hrs at 30° C., read-out: IC50 for lithium in met− media
  IC50: ~40 mM
